From patent publication US20190030009A1, “COMPOUNDS AND COMPOSITIONS FOR THE TREATMENT OF CRYPTOSPORIDIOSIS” (Novartis AG, priority 2016, published 2019)

Key:
Cryptosporidium hominis = assay: Cytopathic effect (CPE) based assay, C. hominis infected HCT-8 cells; details: HCT-8 host cell viability (CellTiter-Glo), 48 hours treatment, read-out: Ch CPE EC50
Procedure: (§1) Human ileocecal colorectal adenocarcinoma cells (HCT-8 [HRT-18] ATCC, CCL-34) were maintained in T-175 flasks (Corning, 431080) in complete growth medium (RPMI-1640 medium (Gibco, 11875) supplemented with 10% heat-inactivated horse serum (Gibco, 26050), 1×MEM non-essential amino acids (Gibco, 11140), 10 mM HEPES (Gibco, 15630), 100 units/mL penicillin, and 100 units/mL streptomycin) at 37° C. and 5% CO2 in a humidified incubator. Cultures were passaged twice weekly using 10 mL of 1×Phosphate-Buffered Saline (PBS) without Ca^2+ and Mg^2+ (Gibco, 20012) for washing and 3-5 mL per T-175 flask of TrypLE Express Enzyme (Gibco, 12604) for dissociation of adherent cells.
Cryptosporidium hominis oocysts were purchased from the Tufts University Cummings School of Veterinary Medicine (courtesy of Dr. Saul Tzipori). C. hominis oocysts were purified from infected gnotobiotic piglet feces and stored in PBS solution containing 0.01% Tween-20, 100 units/mL penicillin and 100 units/mL gentamicin. C. parvum and C. hominis oocysts less than three months old from the date of shedding were used in infection experiments.
(§2) Excystation and infection protocols were developed following established methods with some modifications (Gut & Nelson, 1999, Upton et aL, 1995, Bessoff et aL, 2013). Briefly, oocysts were primed in 1 mL of 10 mM hydrochloric acid in 1× Hank's Balanced Salt Solution (HBSS) (Gibco, 14025) for 10 minutes with agitation at 1000 rpm, 37° C. on an Eppendorf thermomixer, then washed twice with 1 mL of room temperature non-acidic 1× HBSS by centrifugation at 13,000 rpm for 3 minutes at 25° C. Primed oocysts were further excysted at a concentration of 1×10^6 oocysts/μL in parasite infection medium consisting of a pre-warmed and pre-gassed 1:1 formulation of Leibovitz's L-15 medium (Gibco, 11415) and UltraCULTURE medium (Lonza, 12-725F) supplemented with 2 mM sodium taurocholate (Sigma, 86339-1), 10% heat-inactivated horse serum, and 200 μM L-ascorbic acid (Sigma, 95210) at 25° C. for 10 minutes. HCT-8 monolayer cells were infected with excysted cryptosporidium at a specified multiplicity of infection (MOI). All dilutions for subsequent assays were performed in parasite infection medium without sodium taurocholate. Pre-excysted oocysts were enumerated microscopically using a C-Chip disposable hemocytometer (NanoEnTek, DHC-N01).
(§3) Compound powders were dissolved in neat DMSO (Fisher, D4121) to 10 mM and stored at 4° C. prior to dilution into source plates. Dilutions were carried out using a Microlab STAR liquid handler (Hamilton) to obtain compound source plates containing the ten-point or eight-point three fold dilutions starting from 10 mM in duplicates. Source plates were stored at 4° C. prior to spotting into assay plates. Before administration, all compound source plates were equilibrated to room temperature. A specified volume of compounds from source plate were spotted to assay plate using an Echo Acoustic liquid handler (LABCYTE, 550) so that the final DMSO concentration was less than 0.5%. Each assay plate a specified number of DMSO-treated negative control wells and a well-studied potent active compound at 100 nM as positive control. As a quality control, all positive and negative-control wells were used to calculate a Z′-value and signal to noise ratio (S:N) for each plate.
Cryptosporidium spp are obligate-intracellular parasites that infect intestinal epithelial cells and the host cell is killed upon parasite egress. […] The loss of epithelial cells is due to both rapid parasite invasion/multiplication/egress and also pro-inflammatory immune response (Adams et al., 1994, Griffiths et al., 1994). We have observed a consistent cytopathic effect (CPE) in HCT-8 cells with C. spp infection the loss of viability of the host cells using CellTiter-Glo reagent.
Confluent HCT-8 cells in T-175 flasks were directly infected with excysted oocysts at an MOI (host to parasite) of 1:2 for C. parvum and 1:4 for C. hominis. […]

C. parvum = assay: High content imaging assay, C. parvum infected HCT-8 cells; type: cell-based; details: Cryptosporidium parvum, percentage of infected HCT-8 cells, 48 hours treatment, read-out: Cp HCl IC50
Procedure: as §1
Cryptosporidium parvum oocysts purchased from the Sterling Laboratory, University of Arizona (Iowa isolate) were purified from infected calf feces using discontinuous sucrose and cesium chloride centrifugation gradients and stored in PBS solution containing 0.01% Tween 20, 100 units/mL penicillin and 100 units/mL gentamicin.
as §2, §3
Imaging assays were developed following established Cryptosporidium spp labeling and in vitro infection models with some modifications (Bessoff et aL, 2013, Gut & Nelson, 1999). Briefly, 2×10^4 HCT-8 cells per well were seeded into 384-well, flat black clear-bottom OPERA assay plates (Greiner, 789071-G) at 20 μL per well in complete growth medium using a Multidrop Combi liquid handler (ThermoScientific, 5840300) and standard tube dispensing cassette (ThermoScientific, 24072670) and incubated for 24 hours at 37° C. The HCT-8 cells were infected with 10 μL per well of 1×10^4 excysted C. parvum oocysts (host to parasite MOI of 1:0.5) or 10 μL per well of 4×10^4 excysted C. hominis oocysts (MOI 1:2) in parasite infection medium using the Multidrop and incubated at 37° C. […]

N#Cc1ccc(N(C(=O)c2ccn3ncc(-c4ccc(C(=O)NC5COC5)cc4)c3c2)C2CC2)nc1 [Example 131]
EC50 (Cryptosporidium hominis): 4110 nM

N#Cc1ccc(N(C(=O)c2ccn3ncc(-c4ccc(C(N)=O)cc4)c3c2)C2CC2)nc1 [Example 120]
EC50 (Cryptosporidium hominis): 276 nM

N#Cc1ccc(N(C(=O)c2ccn3ncc(-c4ccc(C(=O)NC5CC5)cc4)c3c2)C2CC2)nc1 [Example 123]
EC50 (Cryptosporidium hominis): 3150 nM

CCN(C(=O)c1ccn2ncc(-c3ccc(C(=O)NC)nc3)c2c1)c1ccc(C#N)cn1 [Example 150]
IC50 (C. parvum): 382 nM

CNC(=O)c1ccc(-c2cnn3ccc(C(=O)N(c4ccc(C(F)(F)F)cn4)C4CCC4)cc23)cc1 [Example 160]
IC50 (C. parvum): 29 nM

CNC(=O)c1ccc(-c2cnn3ccc(C(=O)N(c4ccc(C#N)cn4)C(C)C)cc23)cc1 [Example 91]
EC50 (Cryptosporidium hominis): 139 nM

CNC(=O)c1ccc(-c2cnn3ccc(C(=O)N(c4ccc(Cl)cn4)C4CC4)cc23)cc1 [Example 124]
IC50 (C. parvum): 60 nM

CNC(=O)c1ccc(-c2cnn3ccc(C(=O)N(c4ccc(C#N)cn4)C4CCC4)cc23)cc1 [Example 112]
EC50 (Cryptosporidium hominis): 351 nM

CNC(=O)c1ccc(-c2cnn3ccc(C(=O)N(c4ccc(C(F)(F)F)cn4)C(C)C)cc23)cc1 [Example 153]
EC50 (Cryptosporidium hominis): 70 nM
IC50 (C. parvum): 11 nM

CCN(C(=O)c1ccn2ncc(-c3ccc(C(=O)NC)cc3)c2c1)c1ccc(C#N)cn1 [Example 90]
IC50 (C. parvum): 52 nM

CC(C)NC(=O)c1ccc(-c2cnn3ccc(C(=O)N(c4ccc(C#N)cn4)C4CC4)cc23)cc1 [Example 121]
EC50 (Cryptosporidium hominis): > 20000 nM

CCNC(=O)c1ccc(-c2cnn3ccc(C(=O)N(c4ccc(C#N)cn4)C4CC4)cc23)cc1 [Example 127]
EC50 (Cryptosporidium hominis): 71 nM
IC50 (C. parvum): 62 nM

CCN(C(=O)c1ccn2ncc(-c3ccc(C(=O)NC)cc3)c2c1)c1ccc(C(F)(F)F)cn1 [Example 96]
IC50 (C. parvum): 24 nM

CNC(=O)c1ccc(-c2cnn3ccc(C(=O)N(NC)c4ccc(C#N)cc4)cc23)cn1 [Example 92]
IC50 (C. parvum): 94 nM

CNC(=O)c1ccc(-c2cnn3ccc(C(=O)N(c4ccc(C#N)c(OC)n4)C4CC4)cc23)cc1 [Example 149]
IC50 (C. parvum): 32 nM

CNC(=O)c1ccc(-c2cnn3ccc(N(C)C(=O)c4ccc(C#N)cn4)cc23)cc1 [Example 94]
EC50 (Cryptosporidium hominis): 456 nM
IC50 (C. parvum): 123 nM
